The source of these data is article PMC12445440 (Journal of Medical Virology, 2025).

The subject of data set [1] is ZIKV NS5. Nature of the data set: ZIKV protein synthesis by western blot (NS5), Huh-7 cells. The class given is cell-based, Zika virus. Particulars: MOI 1, 1x, 5x, 10x EC50 (PS1097 0.6, 3, 6 μM; SOF 1.5, 7.5, 15 μM), 48 h. As to the method: (§1) Immunoblotting was performed as described.
(§2) Viral protein levels in cell lysates were analyzed by immunoblotting (Figure 3A,B), while virion release was assessed by quantifying ZIKV RNA in supernatants (Figure 3C).
(§3) Impact of treatment on ZIKV protein synthesis was evaluated on cell extracts analyzed by western blot using anti‐ ZIKV NS5, or anti‐GAPDH as a housekeeping control.
For orientation: A western blot detects proteins with antibodies after separation by electrophoresis.

Data set [2] in a line: Cytotoxicity by WST-8, uninfected Huh-7 cells. Particulars: human.
Data set [3] relates to ZIKV^Br. Nature of the data set: Virus yield reduction assay, ZIKV^Br on Huh-7 cells. It is filed as cell-based, Zika virus.
The subject of data set [4] is ZIKV^Br. Nature of the data set: Time-of-addition (TOA) experiments, ZIKV^Br in Huh-7 cells. The class given is cell-based, Zika virus. Particulars: Huh-7, ZIKV^Br MOI 1, 10x EC50 (PS1097 6 μM, SOF 15 μM), harvest 48 h p.i. The procedure:
PS1097 was added at 6 μM at 0, 2, 6, 12, 24, and 36 h p.i. SOF was used as a reference compound at 15 μM. At 48 h p.i., viral proteins were determined by western blot or by qRT‐PCR in cell lysates.
To elucidate the mechanism of PS1097 antiviral action, TOA experiments were conducted (Figure 4A). ZIKV^Br replication kinetics was assessed by quantifying viral genomic RNA and protein inside Huh‐7 cells at the times p.i. shown in Figure 4A. Viral RNA was detectable as of ~12 h p.i. (Figure 4D), whereas viral protein was visible after 24 h p.i. (Figure 4B,C). In parallel, cells were exposed to viral inoculum for 2 h. […] Then, they were harvested at 48 h p.i. Viral RNA in cells was measured by qRT‐PCR and inhibition relative to DMSO‐treated cells was calculated, as described by (Figure 4G).
Figure 4 (A) Experimental design of the Time Of Addition (TOA) assay for PS1097 and SOF. (B) ZIKV replication kinetics was determined on Huh‐7 cells infected at MOI 1for 2 h by western blot cell lysates prepared at the times shown. ZIKV NS5 and GAPDH were monitored with the antibodies in Supporting Information: Table S1. (C) Quantitative analysis of the results in B). (D) qRT‐PCR quantification of ZIKV RNA was carried out in ZIKV‐infected cells lysed at the times indicated on the x axis. (E) western blot of lysates of Huh‐7 cells harvested at 48 h p.i. where treatment with PS1097 or SOF was started as by A). (F) Quantitative analysis of the results in E). (G) ZIKV RNA was quantified in lysates of cells harvested at 48 h p.i. where treatment with PS1097 (red line) or SOF (green line) was started at the times p.i. indicated on the x axis. (H) Combined antiviral activity of PS1097 with SOF against ZIKV. Huh‐7 cells were infected with ZIKV then treated with PS1097 or SOF, alone or in combination, at the indicated concentrations. After 48 h p.i., supernatants were harvested and titrated for ZIKV yield. Two‐dimensional representation of dose–response interaction matrix was determined in synergyfinder.org. Color gradient indicates viral yield inhibition score (red‐highest score). […]

For data set [5], the system named is ZIKV NS5. Nature of the data set: ZIKV protein synthesis by western blot (NS5), Vero E6 cells. It is filed as cell-based, Zika virus. Particulars: MOI 1, 1x, 5x, 10x EC50, 48 h. As to the method: as §1, §2, §3
Data set [6] has as its system Huh-7 cells. Nature of the data set: Cytotoxicity by WST-8, uninfected Huh-7 cells. Particulars: read-out: CC50 Huh-7; Table S2, this paper data.
Data set [7] deals with BVDV. Particulars: previously published data; Na = no detected antiviral activity; ref [18]-[22] of main text, [3] of supplement for PS1086, PS1100, PS1101; cited from earlier work.
The test system of data set [8] is Vero76. Further details: method as in earlier work. Particulars: previously published data; ref [18]-[22] of main text, [3] of supplement for PS1086, PS1100, PS1101; cited from earlier work.
The mark [9] stands for this setting: Zika virus, Huh-7, 48 h, ZIKV^Br on Huh-7 cells, viral yield reduction, 48 h, 95% confidence interval in brackets.
[10] abbreviates: Zika virus, Huh-7, read-out: EC50 ZIKV, Table S2, this paper data, Huh-7 cells, Na = no detected antiviral activity.

Read-outs that look alike come from different tables or passages of the source.

For the compound `CC(C)OC(=O)[C@H](C)N[P@](=O)(OC[C@H]1O[C@@H](n2ccc(=O)[nH]c2=O)[C@](C)(F)[C@@H]1O)Oc1ccccc1` [SOF, Sofosbuvir, reference compound], in data set [1], the “ZIKV protein expression (NS5, western blot)” value was “completely abolished protein synthesis”. Moreover, the CC50 at 48 h in data set [2] amounted to 282 µM. The EC50 (in general, the concentration needed to bring the measured effect to its halfway point) in data set [3] (setting [9]) was 1.5 µM; in data set [3] (setting [10]) it was 1.53 µM. For the same compound, in data set [4], the “Time of addition giving the strongest inhibition” value is given as 0–6 h p.i. Besides, the “ZIKV protein content (NS5, western blot)” value in data set [5] is on record as “no effect on viral protein content”.
`O=c1nc(NO)ccn1[C@@H]1O[C@H](CO)[C@@H](O)[C@H]1O` [EIDD-1931, β‐D‐N4‐hydroxycytidine, reference compound]: the CC50 in data set [6] is 148 µM. In addition, in data set [3] (Table S2, this paper data, Huh-7 cells, Na = no detected antiviral activity, read-out: EC50 ZIKV), the concentration giving a half-maximal response (EC50) worked out at 1.7 µM.
`Cn1c(=O)c(-c2cccs2)nc2c(Cl)c3ncccc3cc21` [PS1240]: the CC50 at 48 h in data set [2] turned out to be 293 µM. For the same compound, the half-maximal effective concentration (EC50) in data set [3] (setting [9]) was 2.06 µM; in data set [7], 2 µM. Also, the CC50 in data set [8] is more than 100 µM.
In data set [2], `NC(=O)c1ncn([C@@H]2O[C@H](CO)[C@@H](O)[C@H]2O)n1` [RBV, 1‐(b‐D‐ribofuranosyl)‐1H‐1,2,4‐triazole‐3‐carboxamide, reference compound] returned a CC50 at 48 h of 144 µM. Moreover, the concentration giving a half-maximal response (EC50) in data set [3] (Zika virus, ZIKV^Br on Huh-7 cells, viral yield reduction, 48 h, 95% confidence interval in brackets, read-out: EC50) is 8.8 µM.
On to `CC(C)c1nc2cc3cccnc3c(Cl)c2[nH]c1=O` [PS462], for which the CC50 at 48 h in data set [2] amounted to 294 µM. Besides, the EC50 was more than 100 µM in data set [3] (setting [9]), 100 µM in data set [3] (setting [10]) and 5 µM in data set [7]. In data set [8], the CC50 is more than 100 µM.
